The test system of this experiment is C57Bl/6 mice transplanted after myeloablation by total body irradiation (TBI). The experiment in a line: Survival of mice after syngeneic bone marrow transplant following myeloablation by total body irradiation, with suspected norovirus infection. In kind it is in vivo. The settings on record: 500 μg/kg/day subcutaneous, FIG. 1. The protocol:
FIG. 1. C57Bl/6 mice (n=40/group) were transplanted after myeloablation by total body irradiation (TBI) from Saline or A(1-7) treated donors and received saline or A(1-7) after transplant.
[…] mice underwent […] in split doses separated by 3 hours. Two hours after TBI, the mice received 2×10^6 syngeneic bone marrow cells by intravenous injection. For treatment, either donors (14 days prior to donation), recipients (starting on the day of transplant) or both received 500 μg/kg/day A(1-7) by subcutaneous injection During bone marrow transplant (BMT), recipients are immune suppressed due to myeloablation. Mice are normally kept in pathogen-free environments during BMT to reduce mortality due to infection.

Among the data in patent US20120071397A1, “Methods for Hematopoietic Stem Cell Transplantation” (University of Southern California, priority 2010, published 2012) are survival values, retold here.

For “Asp-Arg-Val-Tyr-Ile-His-Pro (DRVYIHP) [A(1-7)]”, the survival entry (both donor and recipient treated) was “all surviving”; the survival entry (treatment of either donor (14 days prior to donation), recipient (starting on day of transplant) or both) was “improved survival”.
